From publication PMC8148378 (Chemical Science, 2019) come the findings set out here.

≈ marks a conversion by molar mass, not a printed value.

In general, MIC refers to the lowest concentration that inhibits growth of the organism. The AUC is concentration integrated over time. A lower AUC goes with low exposure.

Data set [1] has as its system E. faecalis ATCC-29212. In words: MIC determination, larger panel. It is filed as cell-based. The note with it: Enterococcus faecalis, ATCC29212, read-out: MIC E. faecalis.
In data set [2] the test system is A. baumannii DSM-30008. Nature of the data set: MIC determination, larger panel. In kind it is cell-based. The note with it: Acinetobacter baumannii, DSM30008, read-out: MIC A. baumannii, DSM-30008.
Data set [3] deals with E. coli WT-3. Nature of the data set: MIC determination, larger panel. The note with it: Escherichia coli, WT3, read-out: MIC E. coli WT-3. It is filed as cell-based.
For data set [4], the system named is E. aerogenes DSM-30053. In words: MIC determination, larger panel. In kind it is cell-based, Enterobacter aerogenes. The note with it: Klebsiella aerogenes, DSM30053, read-out: MIC E. aerogenes.
Data set [5] relates to E. cloacae DSM-30054. Nature of the data set: MIC determination, larger panel. The note with it: Enterobacter cloacae, DSM30054, read-out: MIC E. cloacae. In kind it is cell-based.
In data set [6] the test system is P. aeruginosa ESBL 1 DSM-24600. Nature of the data set: MIC determination, larger panel. It is filed as cell-based. The note with it: Pseudomonas aeruginosa, DSM24600, read-out: MIC P. aeruginosa ESBL 1.
Data set [7] has as its system P. aeruginosa ESBL 2 DSM-46316. Nature of the data set: MIC determination, larger panel. In kind it is cell-based. The note with it: Pseudomonas aeruginosa, DSM46316, read-out: MIC P. aeruginosa ESBL 2.
Data set [8] deals with K. pneumoniae DSM-30104. Nature of the data set: MIC determination, larger panel. In kind it is cell-based. The note with it: Klebsiella pneumoniae, DSM30104, read-out: MIC K. pneumoniae.
The subject of data set [9] is S. marcescens DSM-30121. In words: MIC determination, larger panel. In kind it is cell-based. The note with it: Serratia marcescens, DSM30121, read-out: MIC S. marcescens.
Data set [10] has as its system P. mirabilis DSM-4479. Nature of the data set: MIC determination, larger panel. In kind it is cell-based. The note with it: Proteus mirabilis, DSM4479, read-out: MIC P. mirabilis.
A short description of data set [11]: Single dosing pharmacokinetic study. In kind it is in vivo, male CD-1 outbred mice. The note with it: 5 mg/kg, plasma.
A short description of data set [12]: In vivo tolerance study. More on the design: species or system male CD-1 mice.
Data set [13] can be described thus: Neutropenic thigh infection model, s.c. and i.v. administration. It is filed as in vivo, neutropenic CD-1 mice. The note with it: male, CD-1, mouse, muscle, other: intravenous then subcutaneous.
Data set [14] concerns E. coli strain ATCC25922. The description is as above. It is filed as in vivo, neutropenic CD-1 mice. The note with it: 24 h after infection.
For data set [15], the system named is E. coli ATCC25922. Nature of the data set: Neutropenic murine thigh infection model, i.v. administration. In kind it is in vivo, male ICR mice.
Data set [16] addresses E. coli gyrase (Escherichia coli, UniProt P0AES4). Nature of the data set: DNA gyrase supercoiling assay, method b. It is filed as biochemical. The note with it: compared to 22.
For data set [17], the system named is P. dispersa. Nature of the data set: MIC against the AlbD producer. In kind it is cell-based. The note with it: Pantoea dispersa, read-out: MIC P. dispersa.

Sequence of E. coli gyrase (P0AES4 whole entry): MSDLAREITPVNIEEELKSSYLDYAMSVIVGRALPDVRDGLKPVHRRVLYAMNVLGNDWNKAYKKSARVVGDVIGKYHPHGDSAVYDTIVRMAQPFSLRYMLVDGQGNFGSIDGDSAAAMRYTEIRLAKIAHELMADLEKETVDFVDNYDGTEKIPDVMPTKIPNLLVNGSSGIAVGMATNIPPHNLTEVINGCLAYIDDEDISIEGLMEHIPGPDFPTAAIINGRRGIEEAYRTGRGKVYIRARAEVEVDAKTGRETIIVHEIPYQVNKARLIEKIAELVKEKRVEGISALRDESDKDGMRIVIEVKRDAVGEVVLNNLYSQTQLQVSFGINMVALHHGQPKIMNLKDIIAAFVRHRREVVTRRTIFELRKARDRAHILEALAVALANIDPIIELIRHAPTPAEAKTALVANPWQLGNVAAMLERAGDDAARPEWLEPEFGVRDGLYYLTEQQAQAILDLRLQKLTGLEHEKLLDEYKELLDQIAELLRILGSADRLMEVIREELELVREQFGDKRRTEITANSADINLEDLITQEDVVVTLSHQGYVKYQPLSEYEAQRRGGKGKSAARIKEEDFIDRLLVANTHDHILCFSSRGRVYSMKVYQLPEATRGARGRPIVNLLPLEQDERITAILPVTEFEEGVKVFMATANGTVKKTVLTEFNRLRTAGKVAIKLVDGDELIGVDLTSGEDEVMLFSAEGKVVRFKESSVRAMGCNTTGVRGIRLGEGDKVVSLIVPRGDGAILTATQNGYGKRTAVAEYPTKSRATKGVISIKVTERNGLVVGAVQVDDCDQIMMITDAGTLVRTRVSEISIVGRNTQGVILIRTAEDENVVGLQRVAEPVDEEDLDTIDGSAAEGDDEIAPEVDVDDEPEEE

In the case of `CC(C)Oc1c(NC(=O)c2ccc(NC(=O)[C@H](CC(N)=O)NC(=O)c3ccc(NC(=O)c4ccc(C#N)cc4)cc3)cc2)ccc(C(=O)Nc2ccc(C(=O)O)cc2)c1O` [Compound 22], the MIC in [1] turned out to be 0.5 µg/mL (≈ 0.616 µM); in [2] it was 1 µg/mL (≈ 1.23 µM); in data set [3], 0.25 µg/mL (≈ 0.308 µM); in data set [4], 0.06 µg/mL (≈ 0.0739 µM); in data set [5], 0.25 µg/mL (≈ 0.308 µM); in data set [6] it was 4 µg/mL (≈ 4.93 µM). The MIC in [7] was 4 µg/mL (≈ 4.93 µM); in [8] it was 0.5 µg/mL (≈ 0.616 µM); in data set [9], more than 64 µg/mL; in [10], more than 64 µg/mL. Further, in data set [11] (i.v.), the “V/F (volume of distribution)” value was determined as 3.5 L/kg. Further, the exposure (AUC) in data set [11] (male, CD-1, mouse, iv, area under the curve (AUC), 5 mg kg^−1, plasma) was approximately 2000 ng·h/mL. For the same molecule, the adverse effects result in data set [12] (5 mg kg^−1 i.v. four times every 6 hours (20 mg kg^−1 per day)) is given as “no adverse effect”; in [12] (10 mg kg^−1 i.v. four times every 6 hours (40 mg kg^−1 per day)), “no adverse effect”; in data set [12] (20 mg kg^−1 i.v. four times every 6 hours (80 mg kg^−1 per day)), “one animal in the group treated at 20 mg kg^−1 showed adverse effects”. The molecule also displayed a concentration at 24 h in data set [13] of approximately 100 ng/mL. Moreover, the “reduction of the bacterial load in lung” value in [14] was 3 log units. In [14] (all dosing groups, compared to vehicle-treated animals), the “bacterial load in kidney” value is listed as “complete bacterial clearance”. Moreover, the entries for the “Log10 variation from vehicle control” value in data set [15] (20mg/kg/day i.v.), in data set [15] (40mg/kg/day i.v.) and in data set [15] (50mg/kg/day i.v.) were −3.97 CFU/g, −5.32 CFU/g and −4.89 CFU/g, respectively.
`CC(C)Oc1c(-n2cc(-c3ccc(NC(=O)C(CC(N)=O)NC(=O)c4ccc(NC(=O)c5ccc(C#N)cc5)cc4)cc3)nn2)ccc(C(=O)Nc2ccc(C(=O)O)cc2)c1O` (stereo not drawn) [Compound 61]: the “fold decrease of gyrase inhibition” value in data set [16] is listed as “ca. 20 fold”. Also, the MIC was 16 µg/mL (≈ 19.1 µM) in [1]; 8 µg/mL (≈ 9.57 µM) in data set [2]; 16 µg/mL (≈ 19.1 µM) in [3]; 1 µg/mL (≈ 1.2 µM) in data set [4]; more than 64 µg/mL in data set [5]; 16 µg/mL (≈ 19.1 µM) in [6]. For the same molecule, the MIC is 16 µg/mL (≈ 19.1 µM) in data set [7]; more than 64 µg/mL in data set [8]; more than 64 µg/mL in [9]; 16 µg/mL (≈ 19.1 µM) in data set [10]; 1 µg/mL (≈ 1.2 µM) in data set [17].
